In general, pIC50 refers to the negative decadic logarithm of the IC50, by convention in mol/L. A high value points to a low IC50.

Type in all cases: biochemical
One assay addresses CDK9/Cyclin T (Homo sapiens, UniProt P50750). Briefly: CDK9/Cyclin T kinase assay.
For the next assay, the target named is CDK6/Cyclin D3 (Homo sapiens, UniProt Q00534). Briefly: CDK6/Cyclin D3 kinase assay. Here is the method: [The procedure below names another target; the source lists this target under the same test.] Selected compounds disclosed herein were tested in CDK4/cyclinD1, CDK2/CycA and CDK2/cyclinE kinase assays by Nanosyn (Santa Clara, Calif.) to determine their inhibitory effect on these CDKs. The assays were performed using microfluidic kinase detection technology (Caliper Assay Platform). The compounds were tested in 12-point dose-response format in singlicate at Km for ATP. Phosphoacceptor substrate peptide concentration used was 1 μM for all assays and Staurosporine was used as the reference compound for all assays.

Another assay has as its target CDK2/Cyclin E (Homo sapiens, UniProt P24941). Briefly: CDK2/CyclinE kinase assay (Nanosyn, Caliper microfluidic). Particulars: 12-point dose-response, ATP at Km (100 μM), 0.28 nM enzyme, 1 hr. Here is the method:
(§1) Selected compounds disclosed herein were tested in CDK4/cyclinD1, CDK2/CycA and CDK2/cyclinE kinase assays by Nanosyn (Santa Clara, Calif.) to determine their inhibitory effect on these CDKs. The assays were performed using microfluidic kinase detection technology (Caliper Assay Platform). The compounds were tested in 12-point dose-response format in singlicate at Km for ATP. Phosphoacceptor substrate peptide concentration used was 1 μM for all assays and Staurosporine was used as the reference compound for all assays. Specifics of each assay are as described below:
CDK2/CyclinE: Enzyme concentration: 0.28 nM; ATP concentration: 100 μM; Incubation time: 1 hr.

The target in another assay is CDK4/Cyclin D1 (Homo sapiens, UniProt P11802). Briefly: CDK4/CyclinD1 kinase assay (Nanosyn, Caliper microfluidic). Particulars: 12-point dose-response, ATP at Km (200 μM), 1 nM enzyme, 10 hr. Here is the method:
as §1
CDK4/CyclinD1: Enzyme concentration: 1 nM; ATP concentration: 200 μM; Incubation time: 10 hr.

The target in a further assay is CDK2/Cyclin A (Homo sapiens, UniProt P24941). Briefly: CDK2/CyclinA kinase assay (Nanosyn, Caliper microfluidic). The conditions noted are these: 12-point dose-response, ATP at Km (50 μM), 0.2 nM enzyme, 3 hr. Here is the method:
as §1
CDK2/CyclinA: Enzyme concentration: 0.2 nM; ATP concentration: 50 μM; Incubation time: 3 hr.

pIC50: −log10 of the molar value.

Sequence of CDK9/Cyclin T (P50750 whole entry): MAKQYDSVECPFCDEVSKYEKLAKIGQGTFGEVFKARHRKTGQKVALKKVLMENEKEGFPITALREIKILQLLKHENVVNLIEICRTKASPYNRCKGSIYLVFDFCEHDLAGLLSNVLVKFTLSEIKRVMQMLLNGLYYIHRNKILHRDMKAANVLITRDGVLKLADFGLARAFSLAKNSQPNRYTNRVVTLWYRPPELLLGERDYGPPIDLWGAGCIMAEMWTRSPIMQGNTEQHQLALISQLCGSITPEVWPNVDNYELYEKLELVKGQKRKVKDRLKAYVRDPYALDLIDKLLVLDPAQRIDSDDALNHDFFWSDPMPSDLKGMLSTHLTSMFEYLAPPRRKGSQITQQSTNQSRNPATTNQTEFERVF
Sequence of CDK9/Cyclin T (O60563 whole entry partner): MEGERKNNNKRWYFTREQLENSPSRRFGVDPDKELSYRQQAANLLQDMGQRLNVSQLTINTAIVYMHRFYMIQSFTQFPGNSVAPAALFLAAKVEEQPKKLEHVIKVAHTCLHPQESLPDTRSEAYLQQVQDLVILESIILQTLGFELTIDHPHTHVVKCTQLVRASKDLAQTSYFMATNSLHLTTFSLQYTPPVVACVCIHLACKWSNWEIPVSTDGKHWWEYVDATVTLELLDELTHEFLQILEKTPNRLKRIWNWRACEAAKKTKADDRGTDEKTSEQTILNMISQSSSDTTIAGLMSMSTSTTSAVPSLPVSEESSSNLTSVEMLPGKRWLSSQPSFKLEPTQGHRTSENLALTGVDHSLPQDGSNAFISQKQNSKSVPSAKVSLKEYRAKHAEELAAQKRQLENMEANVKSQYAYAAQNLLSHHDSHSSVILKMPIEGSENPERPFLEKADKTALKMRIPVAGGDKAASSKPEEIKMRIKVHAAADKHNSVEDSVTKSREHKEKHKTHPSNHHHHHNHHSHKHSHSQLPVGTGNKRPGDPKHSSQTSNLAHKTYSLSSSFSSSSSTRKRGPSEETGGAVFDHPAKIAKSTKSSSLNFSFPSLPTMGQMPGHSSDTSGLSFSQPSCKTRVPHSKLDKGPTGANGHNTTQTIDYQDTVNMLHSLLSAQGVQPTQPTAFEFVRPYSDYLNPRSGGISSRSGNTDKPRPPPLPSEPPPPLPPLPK
Sequence of CDK6/Cyclin D3 (Q00534 whole entry): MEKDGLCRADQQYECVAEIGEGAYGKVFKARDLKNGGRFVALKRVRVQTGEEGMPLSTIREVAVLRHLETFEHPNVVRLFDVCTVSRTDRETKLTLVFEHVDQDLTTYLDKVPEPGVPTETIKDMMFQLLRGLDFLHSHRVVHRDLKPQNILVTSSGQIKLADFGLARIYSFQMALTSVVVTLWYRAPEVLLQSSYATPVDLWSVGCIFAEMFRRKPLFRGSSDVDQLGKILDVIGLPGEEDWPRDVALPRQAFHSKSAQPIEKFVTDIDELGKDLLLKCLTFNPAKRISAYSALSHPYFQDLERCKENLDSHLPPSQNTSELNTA
Sequence of CDK6/Cyclin D3 (P30281 whole entry partner): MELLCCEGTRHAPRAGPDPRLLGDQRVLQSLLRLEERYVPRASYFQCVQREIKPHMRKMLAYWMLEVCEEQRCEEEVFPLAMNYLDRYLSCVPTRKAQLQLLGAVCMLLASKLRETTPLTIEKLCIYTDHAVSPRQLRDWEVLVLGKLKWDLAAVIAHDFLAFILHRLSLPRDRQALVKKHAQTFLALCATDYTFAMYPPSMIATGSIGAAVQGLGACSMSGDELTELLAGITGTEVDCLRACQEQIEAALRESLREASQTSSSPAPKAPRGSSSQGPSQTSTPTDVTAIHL
Sequence of CDK4/Cyclin D1 (P11802 whole entry): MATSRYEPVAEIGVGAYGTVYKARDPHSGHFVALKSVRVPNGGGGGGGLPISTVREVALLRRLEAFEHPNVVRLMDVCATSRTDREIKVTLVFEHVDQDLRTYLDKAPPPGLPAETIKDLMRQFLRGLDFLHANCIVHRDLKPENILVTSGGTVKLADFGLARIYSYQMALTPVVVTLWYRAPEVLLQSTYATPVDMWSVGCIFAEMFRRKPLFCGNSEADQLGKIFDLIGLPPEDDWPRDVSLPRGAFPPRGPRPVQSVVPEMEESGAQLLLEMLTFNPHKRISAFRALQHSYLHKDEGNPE
Sequence of CDK4/Cyclin D1 (P24385 whole entry partner): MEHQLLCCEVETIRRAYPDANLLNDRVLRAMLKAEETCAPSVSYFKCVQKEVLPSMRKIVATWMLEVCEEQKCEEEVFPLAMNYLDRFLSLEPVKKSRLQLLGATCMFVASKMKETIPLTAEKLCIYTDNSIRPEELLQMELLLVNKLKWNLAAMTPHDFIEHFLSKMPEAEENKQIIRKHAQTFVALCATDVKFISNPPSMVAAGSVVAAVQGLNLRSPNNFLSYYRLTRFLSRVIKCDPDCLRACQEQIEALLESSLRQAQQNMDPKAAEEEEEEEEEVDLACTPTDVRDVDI

`CN1CCN(c2ccc(Nc3ncc4cc5n(c4n3)C3(CCCCC3)CN=C5)nc2)CC1` [Compound 1, N-(5-(4-methylpiperazin-1-yl)pyridin-2-yl)-8′H-spiro[cyclohexane-1,9′-pyrazino[1′,2′:1,5]pyrrolo[2,3-d]pyrimidin]-2′-amine]: the pIC50 was 7.02 against CDK9/Cyclin T; 8.52 against CDK6/Cyclin D3; 7.21 against CDK2/Cyclin E; 9.00 on CDK4/Cyclin D1; 6.73 on CDK2/Cyclin A.
For `CN1CCN(c2ccc(Nc3ncc4cc5n(c4n3)C3(CCCCC3)CNC5)nc2)CC1` [Compound 2, N-(5-(4-methylpiperazin-1-yl)pyridin-2-yl)-7′,8′-dihydro-6′H-spiro[cyclohexane-1,9′-pyrazino[1′,2′: 1,5]pyrrolo[2,3-d]pyrimidin]-2′-amine], in that order: 5.35, 7.05, 5.24, 7.54 and 4.89.
For `CCCNC1=NCC2(CCCCC2)n2c1cc1cnc(Nc3ccc(N4CCN(C)CC4)cn3)nc12` [Compound 3, N2′-(5-(4-methylpiperazin-1-yl)pyridin-2-yl)-N6′-propyl-8′H-spiro[cyclohexane-1,9′-pyrazino[1′,2′: 1,5]pyrrolo[2,3-d]pyrimidine]-2′,6′-diamine], in that order: 4.49, 5.90, below 4.00, 6.13 and below 4.00.
Turning to `CN1CCN(c2ccc(Nc3ncc4cc5n(c4n3)C3(CCCCC3)CN=C5Nc3ccccc3)nc2)CC1` [Compound 4, N2′-(5-(4-methylpiperazin-1-yl)pyridin-2-yl)-N6′-phenyl-8′H-spiro[cyclohexane-1,9′-pyrazino[1′,2′: 1,5]pyrrolo[2,3-d]pyrimidine]-2′,6′-diamine], the pIC50 against CDK9/Cyclin T was 5.80; on CDK6/Cyclin D3, 7.21; against CDK2/Cyclin E, 4.26; on CDK4/Cyclin D1, 7.57; on CDK2/Cyclin A it was 4.61.
For `CN1CCN(c2ccc(Nc3ncc4cc5n(c4n3)C3(CCCCC3)CN=C5NCc3ccccc3)nc2)CC1` [Compound 5, N6′-benzyl-N2′-(5-(4-methylpiperazin-1-yl)pyridin-2-yl)-8′H-spiro[cyclohexane-1,9′-pyrazino[1′,2′: 1,5]pyrrolo[2,3-d]pyrimidine]-2′,6′-diamine], in that order: 4.95, 6.41, below 4.00, 6.80 and 4.15.
For `CC1=NCC2(CCCCC2)n2c1cc1cnc(Nc3ccc(N4CCN(C)CC4)cn3)nc12` [Compound 9, 6′-methyl-N-(5-(4-methylpiperazin-1-yl)pyridin-2-yl)-8′H-spiro[cyclohexane-1,9′-pyrazino[1′,2′: 1,5]pyrrolo[2,3-d]pyrimidin]-2′-amine] the same measures were 5.60, 7.62, 5.52, 7.02 and 5.43.
For `CN1CCN(c2ccc(Nc3ncc4cc5n(c4n3)C3(CCOCC3)CN=C5)nc2)CC1` [Compound 10, N-(5-(4-methylpiperazin-1-yl)pyridin-2-yl)-2,3,5,6-tetrahydro-8′H-spiro[pyran-4,9′-pyrazino[1′,2′: 1,5]pyrrolo[2,3-d]pyrimidin]-2′-amine], in that order: 5.70, 7.15, 5.30, 7.40 and 5.15.
On to `CO[C@H]1CC[C@]2(CC1)CN=Cc1cc3cnc(Nc4ccc(N5CCN(C)CC5)cn4)nc3n12` [Compound 12, (1R,4R)-4-methoxy-N-(5-(4-methylpiperazin-1-yl)pyridin-2-yl)-8′H-spiro[cyclohexane-1,9′-pyrazino[1′,2′:1,5]pyrrolo[2,3-d]pyrimidin]-2′-amine], for which the pIC50 at CDK9/Cyclin T was 6.00; against CDK6/Cyclin D3 it was 7.00; on CDK2/Cyclin E, 5.15; at CDK4/Cyclin D1, 7.40; against CDK2/Cyclin A, 5.00.
For `CO[C@H]1CC[C@@]2(CC1)CN=Cc1cc3cnc(Nc4ccc(N5CCN(C)CC5)cn4)nc3n12` [Compound 13, (1S,4S)-4-methoxy-N-(5-(4-methylpiperazin-1-yl)pyridin-2-yl)-8′H-spiro[cyclohexane-1,9′-pyrazino[1′,2′:1,5]pyrrolo[2,3-d]pyrimidin]-2′-amine] the same measures were 6.05, 7.70, 5.52, 8.05 and 5.40.

For the origin of these results see patent publication US10618905B2, “Pyrimidine-based compounds for the treatment of cancer” (G1 Therapeutics, Inc., priority 2016, dated 2020).
